Laboratory results as given in patent publication US20050158721A1, “Tissue rejection” (priority 2002, published 2005).

Assays:
[1] = patients treated after cadaveric renal transplantation; result not always reproducible; cited from earlier work
[2] = tested on: primary human tubular epithelial cell (HTEC); experiment: SA β Gal staining at pH6 in primary tubular epithelial cultures as a measure of senescence, with or without H2O2; type: cell-based; conditions: 10 ng/ml tacrolimus (FK); cells challenged with oxidant H2O2 (75 μM); FIG. 3
Experimental: HTEC culture. Primary HTEC cultures were grown at 37° C. 5% CO2 in DMEM/Glutamax-1/+ pyridoxine medium (Life technologies) plus […] ml^−1 Penstrep. Cells were stained for SA β Gal activity as described in Joosten et al 2003.
Building upon the rodent observations, the inventor has established a primary human tubular epithelial cell (HTEC) in vitro system to model and evaluate premature human renal senescence. […] This is shown in FIG. 3, which illustrates SA β Gal staining at pH6 in primary tubular epithelial cultures as a measure of senescence.
Cultures were grown ±100 ng/ml cyclosporin (cyc) or 10 ng/ml tacrolimus (FK) and evaluated with or without oxidising 75 μM H2O2 treatment.
This has profound implications for transplant outcome and current clinical practice.

superoxide dismutase
1 and 4 year graft survival rate [1]: significantly improved | first acute rejection episodes [1]: reduction

C=CC[C@@H]1/C=C(\C)C[C@H](C)C[C@H](OC)[C@H]2O[C@@](O)(C(=O)C(=O)N3CCCC[C@H]3C(=O)O[C@H](/C(C)=C/[C@@H]3CC[C@@H](O)[C@H](OC)C3)[C@H](C)[C@@H](O)CC1=O)[C@H](C)C[C@@H]2OC [tacrolimus]
effect on oxidant stress, judged by SA β Gal staining at pH6 [2]: protect against the effects of oxidant stress
